# Results taken from US20160038490A1, “COMPOSITIONS AND METHODS FOR TREATING DYSPROLIFERATIVE DISEASES” (ANGION BIOMEDICA CORP., priority 2012, published 2016).
# Read-outs that look alike come from different tables or passages of the source.
# Columns and labels:
# SK-BR-3 cells [1] = assay: Cell proliferation, Cell Titer Glo, checkerboard design; assay type: cell-based; conditions: for EC50: Homo sapiens
# Experimental: The effect of all-trans retinoic acid (ATRA), a CYP26 inhibitor and their combination was studied using two HER2+ RARA+ breast cancer cell lines: AU565 and SK-BR-3. Cells were plated in a 96-well plate and treated with compounds in a “checkerboard” design. After 7 days the cell proliferation was determined using the Cell Titer Glo reagent (Promega).
# (§1) This provides a strong rationale for the simultaneous targeting of both signaling pathways in breast cancer patients.
# SK-BR-3 cells [2] = assay: Apoptosis assay (Caspase 3/7 assay); assay type: cell-based
# Source text: as §1
# SK-BR-3 cells [3] = assay: ATRA metabolism in breast cancer cells; assay type: cell-based; conditions: 2×10^6 SK-BR-3 cells treated with 100 nM ATRA, no CYP26 inhibitor
# Experimental: To directly test whether ATRA induces its own metabolism, we treated 2×10^6 SK-BR-3 cells with 100 nM ATRA and determined the ATRA concentration after 24 hours. Significant metabolism of ATRA was found (FIG. 4), with the ATRA concentration dropping to 6 nM after 24 hrs.
# [4] = tested on: SK-BR-3 breast cancer cells; assay: Breast cancer xenograft study; conditions: SK-BR-3 xenograft, immuno-compromised mice; CYP26 inhibitor 10 mg/kg po qd×5, Lapatinib 100 mg/kg po qd×5; compared to vehicle
# Experimental: Once palpable tumors were established in immuno-compromised mice, animals were randomized to four treatment groups: (1) Vehicle, (2) CYP26 inhibitor (10 mg/kg, po, qd×5), (3) the EGFR/HER2 inhibitor Lapatinib (100 mg/kg, po, qd×5) or (4) the combination of the two (10 mg/kg CYP26 inhibitor and 100 mg/kg Lapatinib).
SMILES,"EC50 (SK-BR-3 cells [1]; 168 h, SK-BR-3, 7 days, ATRA alone, estimated, read-out: EC50, inhibition of cell growth) [nM]","effect on cell growth (SK-BR-3 cells [1]; SK-BR-3, lapatinib/ATRA experiment)","effect on Caspase 3/7 activity (SK-BR-3 cells [2]; SK-BR-3, synergy analyzed with Bliss additivity model)",ATRA concentration after 24 hours (SK-BR-3 cells [3]) [nM],"EC50 (SK-BR-3 cells [1]; SK-BR-3, lapatinib alone, read-out: EC50, inhibition of cell growth in the absence of ATRA) [nM]","induction of Caspase 3/7 activity (SK-BR-3 cells [2]; SK-BR-3, 24 hours incubation, absence of ATRA) [fold]",tumor progression / tumor growth inhibition [4]
"CC1=C(/C=C/C(C)=C/C=C/C(C)=C/C(=O)O)C(C)(C)CCC1 [ATRA, all-trans retinoic acid]",~40,inhibited breast cancer cell growth,small effect,6,,,
CS(=O)(=O)CCNCc1ccc(-c2ccc3ncnc(Nc4ccc(OCc5cccc(F)c5)c(Cl)c4)c3c2)o1 [lapatinib],,,,,64,~2,Markedly reduced tumor progression
